Where two headings read alike, the source gives them in different places.

One series has as its system HK-2. As to the kind of experiment: Anti-proliferative activity, CellTiter-Glo, 72 hours: HK-2. The class given is cell-based, human. Particulars: Homo sapiens, HK-2 (kidney epilithial), Cell-Titre-Glo. On the procedure: (§1) Anti-proliferative activity of BTM compounds. The anti-proliferative activities of Compound A197 and Compound B19 were compared to 4EGI-1 (a known cancer cell growth inhibitor) in a panel of 99 tumor lines. Methods: A panel of 96 tumor and 3 normal cell lines were tested for sensitivity to the test compound. The cell lines were cultured in standard media and pipetted into 96-well plates at the required plating densities. The cells were acclimated for 24 hours prior to compound testing. Compound was prepared as a stock of 20 mM in DMSO. To prepare dose response curves compound was serially diluted in DMSO and dispensed into the plate wells using a Tecan D300e digital dispenser. The final DMSO concentration was 0.15%. After 72 hours of incubation cell number was determined using the CellTiter-Glo® protocol according to the manufacturers instructions (Promega). In this assay, ATP is measured as a surrogate of cell number. The activity of the compound is determined by comparing untreated cells with treated cells and calculating the % of signal retained. Compound activity is measured as an EC50 of maximum level of efficacy and the two are used to compute an activity area. The table below provides a comparison of activity in a data sample.
(Cellular ATP, detected with luciferase, serves as a proxy for viable cell number.)

The subject of another series is MIA PaCa-2. As to the kind of experiment: Anti-proliferative activity, CellTiter-Glo, 72 hours: MIA PaCa-2. The class given is cell-based, human. Particulars: Homo sapiens, MIA PaCa-2 (pancreactic cancer (carcinoma)), Cell-Titre-Glo. As for the experimental part:
as §1

The subject of the next series is NCI-H460. The series can be described thus: Anti-proliferative activity, CellTiter-Glo, 72 hours: NCI-H460. The class given is cell-based, human. Particulars: Homo sapiens, NCI-H460 (non-small cell lung cancer), Cell-Titre-Glo. As for the experimental part:
as §1

For a further series, the system named is HT-1080. As to the kind of experiment: Anti-proliferative activity, CellTiter-Glo, 72 hours: HT-1080. The series is classed as cell-based, human. As to conditions: Homo sapiens, HT-1080 (fibrosarcoma), Cell-Titre-Glo. As for the experimental part: as §1
Another series concerns NHLF. As to the kind of experiment: Anti-proliferative activity, CellTiter-Glo, 72 hours: NHLF. The class given is cell-based. As to conditions: NHLF (human lung fibroblast), Cell-Titre-Glo. On the procedure: as §1
The next series concerns SU-DHL-4. The series can be described thus: Anti-proliferative activity, CellTiter-Glo, 72 hours: SU-DHL-4. The series is classed as cell-based, human. As to conditions: Homo sapiens, SU-DHL-4 (B-cell lymphoma), Cell-Titre-Glo. On the procedure:
as §1

For another series, the system named is LoVo. As to the kind of experiment: Anti-proliferative activity, CellTiter-Glo, 72 hours: LoVo. The class given is cell-based, human. Particulars: Homo sapiens, LoVo (colorectal cancer), Cell-Titre-Glo. On the procedure:
as §1

Series [1] in a line: Single rising-dose mouse pharmacokinetics (PK) experiment. The series is classed as in vivo, CD-1 mice. As to conditions: for PK properties: mouse PK data. On the procedure: FIG. 9 is a graph of mouse pharmacokinetics of a single rising dose PK of Compound A197 in female CD-1 mice. Compound was administered orally with the indicated dose. Blood was drawn by tail-bleed at the appropriate times and Compound A197 plasma levels determined by LC-MS. All values, mean±SD (n=3 mice per group).
A single rising-dose mouse pharmacokinetics (PK) experiment was performed at PGP-52 TI 10, 20, 40, 150 and 300 mg/kg Compound A197. Female CD-1 mice (20-30 grams in weight) were dosed by oral gavage or by intravenous injection with A197 dissolved in 1% NMP, 0.3% Tween-80 in 0.5% methylcellulose at a dose volume of 10 ml/kg. Following compound dosing, blood was collected by tail vein bleed into K2EDTA tubes at 30 minutes, 1, 3, 5, 7, 24 an 48 hrs following dosing. Plasma (5 μL) from A197 dosed animals was acidified with […] and 1% ammonium formate in methanol to precipitate protein and delipidate plasma. The material was centrifuged at 1000× and a 120 μL sample of the supernatant was then dried under vacuum. The deproteinated and delipidated residue was resuspended in 200 μL of 1% ammonium formate in methanol and the centrifugation and drying process repeated. The dried material is then resuspended in 100 μL of a mixture of 2 parts methanol: 1 part acetonitrile: 1 part water. A 10 μL sample of this material is then injected onto a Xbridge C18 2.5 μM, 3×30 mm, XP column attached to a TSQ Vantage LC/MS system for quantitation.

Another series concerns MDA-MB-231. As to the kind of experiment: Anti-proliferative activity, CellTiter-Glo, 72 hours: MDA-MB-231. As to conditions: Homo sapiens, MDA-MB-231 (breast cancer), Cell-Titre-Glo. The class given is cell-based, human. As for the experimental part: as §1
Another series concerns D283 Med. The series can be described thus: Cell viability, CellTiter-Glo, 96 h: D283 Med. The series is classed as cell-based. Particulars: for IC50: read-out: Absolute IC50. As for the experimental part: (§2) Viability was determined by using the 50% inhibitory concentration (IC50) as determined with the CellTiter-Glo® Viability Assay (Promega). All cells were cultured under standard conditions in media supplemented with 10-15% Fetal Bovine Serum, at a temperature of 37° C., 5% CO2 and 95% humidity.
(§3) Cells were harvested during the logarithmic growth period, counted, and the cell concentration adjusted to 4.44×10^4 cells/mL using culture medium. A final cell density of 4×10^3 cells/well was added in a 90 μL cell suspension to plates A and B as shown.
(§4) Test plate B was incubated for 96 h in the humidified incubator at 37° C. with 5% CO2.
(§5) Following the incubation, the plate was equilibrated at room temperature for thirty minutes. CellTiter-Glo® (50 μL) was added to each well of the plate and contents mixed for five minutes on an orbital shaker to induce cell lysis. The luminescent signal was allowed to stabilize at room temperature for 20 minutes and the luminescence recorded.
(§6) IC50 (EC50) was calculated using a dose-response curve, fitted using a nonlinear regression model with a sigmoidal dose response. Survival rate was calculated using the formula:
(§7) The Surviving rate (%)=(LumTest article−LumMedium control)/(LumNon-treated−LumMedium control)×100%.
(§8) Absolute IC50 (EC50) was calculated according to the dose-response curve generated by the statistical software (GraphPad Prism 5.0).

The next series relates to KU812. As to the kind of experiment: Cell viability, CellTiter-Glo, 96 h: KU812. The series is classed as cell-based. Particulars: for IC50: read-out: Absolute IC50. As for the experimental part:
as §2, §3, §4, §5, §6, §7, §8

Another series has as its system 8305C. As to the kind of experiment: Cell viability, CellTiter-Glo, 96 h: 8305C. The series is classed as cell-based. Particulars: for IC50: read-out: Absolute IC50. As for the experimental part: as §2, §3, §4, §5, §6, §7, §8

For the compound `COC(=O)c1c(-c2cccc(F)c2)c(C)nn1-c1nc(C2=CCC(C(F)(F)F)CC2)c(SC(C)C)s1` (single isomer, unassigned) [Compound B19, methyl 4-(3-fluorophenyl)-1-(5-(isopropylthio)-4-(4-(trifluoromethyl)cyclohex-1-en-1-yl)thiazol-2-yl)-3-methyl-1H-pyrazole-5-carboxylate], the IC50 (in general, the midpoint of a concentration-inhibition curve) in the series on HK-2 was > 30 µM; in the series with MIA PaCa-2 it was 0.447 µM; with NCI-H460 it was 0.167 µM; with HT-1080, 0.528 µM; in the series with NHLF, > 30 µM; in the series with SU-DHL-4 it was 0.36 µM. Also, the IC50 is 0.116 µM in the series on LoVo and > 30 µM with MDA-MB-231. The PK properties result in series [1] is “drug-like PK properties suitable for once daily dosing”.

With `N.N.[Cl][Pt][Cl]` [Cisplatin, reference compound], the % inhibition (commonly how much of the control response was suppressed) at top conc. in the series on D283 Med was 99.39%; with KU812, 99.20%; in the series with 8305C it was 99.17%. Also, the IC50 came to 0.7 µM with D283 Med, 1.95 µM in the series on KU812 and 6.14 µM in the series with 8305C.

As to `Cc1nn(-c2nc(-c3ccc(C(F)(F)F)cc3)c(SC(C)C)s2)c(C(=O)O)c1-c1cccc(F)c1` [Compound A197, 4-(3-fluorophenyl)-1-(5-(isopropylthio)-4-(4-(trifluoromethyl)phenyl)thiazol-2-yl)-3-methyl-1H-pyrazole-5-carboxylic acid], the results for the “% inhibition at top conc.” value in the series with D283 Med, in the series on KU812 and in the series on 8305C were 66.67%, 27.53% and 33.79%, respectively. Besides, the IC50 with D283 Med (Homo sapiens) is > 30 µM; with KU812 (Homo sapiens), > 30 µM; with HK-2, > 30 µM; in the series with MIA PaCa-2, 0.623 µM; in the series with NCI-H460, 0.156 µM; with HT-1080 it was 0.725 µM. For the same compound, the IC50 is > 30 µM in the series on 8305C (Homo sapiens); > 30 µM with NHLF; 0.288 µM in the series on SU-DHL-4; 0.123 µM in the series on LoVo; > 30 µM with MDA-MB-231. For the same compound, in [1], the PK properties entry is “drug-like PK properties suitable for once daily dosing”. Besides, the dose proportionality entry in series [1] (single rising dose 10, 20, 40, 150 and 300 mg/kg, oral, female CD-1 mice, plasma by LC/MS) is listed as “dose proportionality was observed up to 300 mg/kg”.

For the origin of these results see US20210278408A1, “METHODS OF TREATMENT OF CANCER WITH SUBSTITUTED PYRROLE AND PYRAZOLE COMPOUNDS AND DIAGNOSIS OF CANCERS SUSCEPTIBLE TO TREATMENT WITH SUBSTITUTED PYRROLE AND PYRAZOLE COMPOUNDS” (Bantam Pharmaceutical, LLC, priority 2018, published 2021).
